Among the data in patent publication US12391679B2, “Benzamide-substituted bicyclic imidazo- and pyrazolo-fused -pyridine, -pyrimide, and -pyridazine compounds for treatment of inflammatory diseases” (ONCO3R Therapeutics BV, priority 2019, dated 2025) are IC50 values, retold here.

Holding throughout (format): biochemical
Assay [1] addresses T1, SIK2 (Homo sapiens, UniProt Q9H0K1).
T1 construct: purchased ThermoFisher Scientific PV4792
In words: ADP-Glo kinase assay, SIK2. On the procedure: (§1) The ADP-Glo™ kinase assay is a luminescent technology assay which measures the ADP formed from a kinase reaction. […] In a second step the kinase reactions are terminated and all the remaining ATP is depleted. In a final step the ADP is converted into ATP and this newly synthesized ATP is measured by using a luciferase/luciferin reaction. The generated light is measured using an Envision plate reader, wherein the luminescent signal obtained positively correlates with the kinase activity.
(§2) 1% DMSO and 10 μM staurosporine final concentrations are used as negative and positive controls.
(§3) 2 μL enzyme-substrate mixture is added to the assay plates.
(§4) The reaction is started by adding 2 μL diluted ATP on the assay plates. Plates are centrifuged for a few seconds at 1000 rpm and gently shaken for […] followed by an incubation at RT for 120 min.
(§5) The reactions are stopped and the unconsumed ATP is depleted by adding 5 μL ADP-Glo Reagent (Promega, Cat #V9120) to the reaction. The plates are centrifuged for a few seconds at 1000 rpm and incubated at RT for 40 min (ATP depletion).
(§6) The ADP is converted to ATP and luciferase and luciferin is introduced to detect ATP by adding 10 μL Kinase Detection Reagent (Promega, Cat #V913B+V914r) to the reaction. The plates are centrifuged for a few seconds at 1000 rpm and incubated at RT for 30 min (ADP detection).
(§7) Luminescence is measured on an Envision plate reader (PerkinElmer Inc.).

Assay [2] concerns the target T2, SIK3 (Homo sapiens, UniProt Q9Y2K2).
T2 construct: purchased SignalChem S12-11G-100
In words: ADP-Glo kinase assay, SIK3. The method, then:
as §1, §2, §3, §4, §5, §6, §7

Assay [3] addresses T3, SIK1 (Homo sapiens, UniProt P57059).
T3 construct: purchased Carna Biosciences 02-131
In words: ADP-Glo kinase assay, SIK1. The method, then:
as §1, §2, §3, §4, §5, §6, §7
On the technique in general: ADP-Glo turns the ADP formed in a reaction into a luminescent signal.

T3 sequence (P57059 whole entry): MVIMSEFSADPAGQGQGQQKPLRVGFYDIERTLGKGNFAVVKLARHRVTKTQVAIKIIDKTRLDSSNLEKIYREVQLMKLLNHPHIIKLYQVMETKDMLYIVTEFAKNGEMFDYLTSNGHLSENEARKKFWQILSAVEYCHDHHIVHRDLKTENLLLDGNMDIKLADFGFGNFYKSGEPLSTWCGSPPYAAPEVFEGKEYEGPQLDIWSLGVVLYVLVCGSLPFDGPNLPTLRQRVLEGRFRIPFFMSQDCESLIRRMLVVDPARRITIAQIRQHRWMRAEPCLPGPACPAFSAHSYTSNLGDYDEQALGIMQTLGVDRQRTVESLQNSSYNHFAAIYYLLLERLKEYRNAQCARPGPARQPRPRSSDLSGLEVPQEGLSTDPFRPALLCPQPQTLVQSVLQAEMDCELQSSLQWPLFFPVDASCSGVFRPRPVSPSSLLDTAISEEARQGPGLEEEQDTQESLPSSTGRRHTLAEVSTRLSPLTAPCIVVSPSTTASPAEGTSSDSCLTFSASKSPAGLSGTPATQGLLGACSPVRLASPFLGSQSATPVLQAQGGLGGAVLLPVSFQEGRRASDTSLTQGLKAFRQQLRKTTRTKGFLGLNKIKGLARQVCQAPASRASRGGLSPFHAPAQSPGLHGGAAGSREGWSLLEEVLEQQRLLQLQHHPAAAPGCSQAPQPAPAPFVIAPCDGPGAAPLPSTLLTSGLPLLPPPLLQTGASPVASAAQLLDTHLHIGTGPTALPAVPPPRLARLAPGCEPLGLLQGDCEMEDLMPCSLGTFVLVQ
T2 sequence (Q9Y2K2 59-365 limits assumed): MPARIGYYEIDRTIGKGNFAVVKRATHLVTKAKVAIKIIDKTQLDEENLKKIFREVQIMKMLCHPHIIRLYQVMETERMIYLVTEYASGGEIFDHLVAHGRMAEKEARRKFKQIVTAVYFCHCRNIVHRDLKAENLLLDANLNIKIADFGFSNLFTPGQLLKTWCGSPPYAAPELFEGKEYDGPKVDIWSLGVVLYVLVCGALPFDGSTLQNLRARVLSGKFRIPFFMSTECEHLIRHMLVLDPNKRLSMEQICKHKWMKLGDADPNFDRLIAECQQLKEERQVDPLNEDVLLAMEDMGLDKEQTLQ
T1 sequence (Q9H0K1 whole entry): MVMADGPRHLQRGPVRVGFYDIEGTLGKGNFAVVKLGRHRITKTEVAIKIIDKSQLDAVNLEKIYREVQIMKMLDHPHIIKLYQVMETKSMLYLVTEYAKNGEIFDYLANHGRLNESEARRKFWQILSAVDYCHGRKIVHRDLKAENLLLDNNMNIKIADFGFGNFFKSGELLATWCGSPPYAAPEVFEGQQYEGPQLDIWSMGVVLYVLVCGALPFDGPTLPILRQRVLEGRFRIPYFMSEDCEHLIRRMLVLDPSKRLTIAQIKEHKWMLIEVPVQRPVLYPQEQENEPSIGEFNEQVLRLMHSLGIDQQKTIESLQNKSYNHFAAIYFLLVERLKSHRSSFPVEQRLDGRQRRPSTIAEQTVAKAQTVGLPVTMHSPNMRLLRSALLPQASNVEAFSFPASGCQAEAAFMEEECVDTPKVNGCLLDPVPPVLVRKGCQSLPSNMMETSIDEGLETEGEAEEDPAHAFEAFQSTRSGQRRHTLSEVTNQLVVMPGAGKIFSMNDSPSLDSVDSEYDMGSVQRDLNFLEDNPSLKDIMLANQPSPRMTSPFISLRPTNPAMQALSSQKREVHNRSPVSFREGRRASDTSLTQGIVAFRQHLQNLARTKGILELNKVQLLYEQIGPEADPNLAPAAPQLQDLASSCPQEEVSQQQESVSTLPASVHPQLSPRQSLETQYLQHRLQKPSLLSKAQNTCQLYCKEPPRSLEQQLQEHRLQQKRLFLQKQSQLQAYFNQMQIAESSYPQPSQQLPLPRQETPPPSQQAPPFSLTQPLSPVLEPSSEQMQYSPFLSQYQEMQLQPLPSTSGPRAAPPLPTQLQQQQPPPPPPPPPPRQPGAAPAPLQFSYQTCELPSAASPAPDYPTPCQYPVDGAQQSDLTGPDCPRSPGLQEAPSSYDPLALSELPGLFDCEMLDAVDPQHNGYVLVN

By IC50 is commonly meant the concentration at which inhibition is half-maximal. Read a low IC50 as greater potency in that assay. Regarding `COc1cc(-c2cnc3cc(C(C)(C)C#N)ccn23)cc(OC(F)F)c1C(=O)N1CCC1CO` (stereo not drawn) [Cpd 105, 2-[3-[3-(difluoromethoxy)-4-[2-(hydroxymethyl)azetidine-1-carbonyl]-5-methoxy-phenyl]imidazo[1,2-a]pyridin-7-yl]-2-methyl-propanenitrile], the results for the concentration for half-maximal inhibition (IC50) in assay [1], in assay [2] and in assay [3] were greater than 500 nM, 100 to 500 nM and greater than 500 nM, respectively.
For the molecule `COc1cc(-c2cnc3cc(C(C)(C)C#N)ccn23)cc(OC(F)F)c1C(=O)NCC1CCOC1` (stereo not drawn) [Cpd 85, 4-[7-(1-cyano-1-methyl-ethyl)imidazo[1,2-a]pyridin-3-yl]-2-(difluoromethoxy)-6-methoxy-N-(tetrahydrofuran-3-ylmethyl)benzamide], the IC50 in assay [1] is greater than 500 nM; in assay [2], 100 to 500 nM; in assay [3], greater than 500 nM.
On to `COc1cc(-c2cnc3cc(C(C)(C)C#N)ccn23)cc(OC(F)F)c1C(=O)N[C@H]1CCCC[C@@H]1N` [Cpd 92, N-[(1S,2S)-2-aminocyclohexyl]-4-[7-(1-cyano-1-methyl-ethyl)imidazo[1,2-a]pyridin-3-yl]-2-(difluoromethoxy)-6-methoxy-benzamide], for which the IC50 in assay [1] was greater than 500 nM; in assay [2], 10 to 100 nM; in assay [3], greater than 500 nM.
As to `COCCOc1cc(-c2cnn3cc(C(C)(C)C#N)ccc23)cc(OC)c1C(=O)NC1CC1` [Cpd 260, 4-[6-(1-cyano-1-methyl-ethyl)pyrazolo[1,5-a]pyridin-3-yl]-N-cyclopropyl-2-methoxy-6-(2-methoxyethoxy)benzamide], the half-inhibitory concentration (IC50) was greater than 500 nM in assay [1], 100 to 500 nM in assay [2] and greater than 500 nM in assay [3].
In the case of `COc1cc(-c2cnc3cc(C(C)(C)C#N)ccn23)cc2c1C(=O)NC2` [Cpd 111, 2-[3-(7-methoxy-1-oxo-isoindolin-5-yl)imidazo[1,2-a]pyridin-7-yl]-2-methyl-propanenitrile], the half-maximal inhibitory concentration (IC50) in assay [1] was greater than 500 nM; in assay [2] it was 10 to 100 nM; in assay [3] it was greater than 500 nM.
Turning to `COCCCNC(=O)c1c(OC)cc(-c2cnc3cc(C(C)(C)C#N)ccn23)cc1OC(F)F` [Cpd 45, 4-[7-(1-cyano-1-methyl-ethyl)imidazo[1,2-a]pyridin-3-yl]-2-(difluoromethoxy)-6-methoxy-N-(3-methoxypropyl)benzamide], the results for the IC50 in assay [1], in assay [2] and in assay [3] were greater than 500 nM, 100 to 500 nM and greater than 500 nM, respectively.
Regarding `CCC(O)C(C)(C)c1ccn2c(-c3cc(OC)c(C(=O)NC4CC4)c(OC(F)F)c3)cnc2c1` (stereo not drawn) [Cpd 201, N-cyclopropyl-2-(difluoromethoxy)-4-[7-(2-hydroxy-1,1-dimethyl-butyl)imidazo[1,2-a]pyridin-3-yl]-6-methoxy-benzamide], the values for the half-maximal inhibitory concentration (IC50) in assay [1], in assay [2] and in assay [3] were greater than 500 nM, 10 to 100 nM and greater than 500 nM, respectively.
In the case of `COc1cc(-c2cnc3cc(C4(C(=O)O)CC4)ccn23)cc(OC(F)F)c1C(=O)NC1CC1` [Cpd 114, 1-[3-[4-(cyclopropylcarbamoyl)-3-(difluoromethoxy)-5-methoxy-phenyl]imidazo[1,2-a]pyridin-7-yl]cyclopropanecarboxylic acid], the figures for the IC50 in assay [1], in assay [2] and in assay [3] were greater than 500 nM, 10 to 100 nM and greater than 500 nM, respectively.
Regarding `COc1cc(-c2cnc3cc(C(C)(C)C#N)ccn23)cc(OC(F)F)c1C(=O)NC(CO)C1CC1` (stereo not drawn) [Cpd 87, 4-[7-(1-cyano-1-methyl-ethyl)imidazo[1,2-a]pyridin-3-yl]-N-(1-cyclopropyl-2-hydroxy-ethyl)-2-(difluoromethoxy)-6-methoxy-benzamide], the IC50 in assay [1], in assay [2] and in assay [3] was greater than 500 nM in each case.
Consider `COc1cc(-c2cnc3cc(C4(C(=O)NCCO)CC4)ccn23)cc(OC(F)F)c1C(=O)NC1CC1` [Cpd 147, N-cyclopropyl-2-(difluoromethoxy)-4-[7-[1-(2-hydroxyethylcarbamoyl)cyclopropyl]imidazo[1,2-a]pyridin-3-yl]-6-methoxy-benzamide], for which the concentration for half-maximal inhibition (IC50) in assay [1] is greater than 500 nM; in assay [2], 10 to 100 nM; in assay [3], greater than 500 nM.
For the molecule `CCN(CC)CC(C)(C)c1ccc2c(-c3cc(OC)c(C(=O)N[C@@H]4C[C@@H]4F)c(OC(F)F)c3)cnn2c1` [Cpd 276, 4-[6-[2-(diethylamino)-1,1-dimethyl-ethyl]pyrazolo[1,5-a]pyridin-3-yl]-2-(difluoromethoxy)-N-[(1R,2S)-2-fluorocyclopropyl]-6-methoxy-benzamide], the half-maximal inhibitory concentration (IC50) in assay [1] was greater than 500 nM; in assay [2] it was 10 to 100 nM; in assay [3] it was greater than 500 nM.
For `COc1cc(-c2cnc3cc(C(C)(O)C4CCOCC4)ccn23)cc(OC(F)F)c1C(=O)NC1CC1` (stereo not drawn) [Cpd 134, N-cyclopropyl-2-(difluoromethoxy)-4-[7-(1-hydroxy-1-tetrahydropyran-4-yl-ethyl)imidazo[1,2-a]pyridin-3-yl]-6-methoxy-benzamide], the half-inhibitory concentration (IC50) was greater than 500 nM in assay [1], 10 to 100 nM in assay [2] and greater than 500 nM in assay [3].
In the case of `COc1cc(-c2cnc3cc(C(C)(C)C#N)ccn23)cc(OC(F)F)c1C(=O)N1CC(NC(=O)OC(C)(C)C)C1` [Cpd 94, tert-butyl N-[1-[4-[7-(1-cyano-1-methyl-ethyl)imidazo[1,2-a]pyridin-3-yl]-2-(difluoromethoxy)-6-methoxy-benzoyl]azetidin-3-yl]carbamate], the IC50 in assay [1], in assay [2] and in assay [3] was greater than 500 nM in each case.
On to `COc1cc(-c2cnc3cc(C(C)(C)C#N)ccn23)cc(OC(F)F)c1C(=O)NC1CC(F)(F)C1` [Cpd 88, 4-[7-(1-cyano-1-methyl-ethyl)imidazo[1,2-a]pyridin-3-yl]-N-(3,3-difluorocyclobutyl)-2-(difluoromethoxy)-6-methoxy-benzamide], for which the concentration for half-maximal inhibition (IC50) in assay [1] is greater than 500 nM; in assay [2] it was 10 to 100 nM; in assay [3] it was greater than 500 nM.
With `COc1cc(-c2cnc3cc(C(C)(O)CN(C)CCO)ccn23)cc(OC(F)F)c1C(=O)NC1CC1` (stereo not drawn) [Cpd 209, N-cyclopropyl-2-(difluoromethoxy)-4-[7-[1-hydroxy-2-[2-hydroxyethyl(methyl)amino]-1-methyl-ethyl]imidazo[1,2-a]pyridin-3-yl]-6-methoxy-benzamide], the IC50 is greater than 500 nM in assay [1], 10 to 100 nM in assay [2] and greater than 500 nM in assay [3].
As for `COc1cc(-c2cnc3cc(C(C)N4CCCC4)ccn23)cc(OC(F)F)c1C(=O)NC1CC1` (stereo not drawn) [Cpd 153, N-cyclopropyl-2-(difluoromethoxy)-6-methoxy-4-[7-(1-pyrrolidin-1-ylethyl)imidazo[1,2-a]pyridin-3-yl]benzamide], the figures for the IC50 in assay [1], in assay [2] and in assay [3] were greater than 500 nM, 10 to 100 nM and greater than 500 nM, respectively.
On to `COc1cc(-c2cnc3cc(C4(CN5CCOCC5)CC4)ccn23)cc(OC(F)F)c1C(=O)NC1CC1` [Cpd 145, N-cyclopropyl-2-(difluoromethoxy)-6-methoxy-4-[7-[1-(morpholinomethyl)cyclopropyl]imidazo[1,2-a]pyridin-3-yl]benzamide], for which the results for the IC50 in assay [1], in assay [2] and in assay [3] were greater than 500 nM, 100 to 500 nM and greater than 500 nM, respectively.
In the case of `COc1cc(-c2cnn3cc(C4(C(=O)N5CCOCC5)CCC4)ccc23)cc(OC(F)F)c1C(=O)N[C@@H]1C[C@@H]1F` [Cpd 274, 2-(difluoromethoxy)-N-[(1R,2S)-2-fluorocyclopropyl]-6-methoxy-4-[6-[1-(morpholine-4-carbonyl)cyclobutyl]pyrazolo[1,5-a]pyridin-3-yl]benzamide], the half-inhibitory concentration (IC50) was greater than 500 nM in assay [1], 100 to 500 nM in assay [2] and greater than 500 nM in assay [3].
With `CCC(CC)(OC)c1ccn2c(-c3cc(OC)c(C(=O)NC4CC4)c(OC(F)F)c3)cnc2c1` [Cpd 126, N-cyclopropyl-2-(difluoromethoxy)-4-[7-(1-ethyl-1-methoxy-propyl)imidazo[1,2-a]pyridin-3-yl]-6-methoxy-benzamide], the figures for the IC50 in assay [1], in assay [2] and in assay [3] were greater than 500 nM, 10 to 100 nM and greater than 500 nM, respectively.
For `COc1cc(-c2cnc3cc(C(C)(C)C#N)ccn23)cc(OC(F)F)c1C(=O)NC(C)C(F)F` (stereo not drawn) [Cpd 71, 4-[7-(1-cyano-1-methyl-ethyl)imidazo[1,2-a]pyridin-3-yl]-2-(difluoromethoxy)-N-(2,2-difluoro-1-methyl-ethyl)-6-methoxy-benzamide], the 50% inhibitory concentration (IC50) in assay [1] is greater than 500 nM; in assay [2], 10 to 100 nM; in assay [3], greater than 500 nM.
Turning to `COc1cc(-c2cnc3cc(C4(CNC(C)C)CC4)ccn23)cc(OC(F)F)c1C(=O)NC1CC1` [Cpd 151, N-cyclopropyl-2-(difluoromethoxy)-4-[7-[1-[(isopropylamino)methyl]cyclopropyl]imidazo[1,2-a]pyridin-3-yl]-6-methoxy-benzamide], the figures for the IC50 in assay [1], in assay [2] and in assay [3] were greater than 500 nM, 100 to 500 nM and greater than 500 nM, respectively.
Turning to `COc1cc(-c2cnn3cc(C(C)(C)C#N)ccc23)cc(F)c1C(=O)NC1CC1` [Cpd 252, 4-[6-(1-cyano-1-methyl-ethyl)pyrazolo[1,5-a]pyridin-3-yl]-N-cyclopropyl-2-fluoro-6-methoxy-benzamide], the IC50 in assay [1] was greater than 500 nM; in assay [2], 100 to 500 nM; in assay [3] it was greater than 500 nM.
